Measurements as given in patent US9952300B2, “Dynamic contrast enhanced MRI method and agents for the assessment of the macromolecular transport within pathologic tissues” (BRACCO IMAGING S.P.A., priority 2012, dated 2018).
Values joined by “and” are separate entries in the source; they are usually repeats but may differ in a detail not shown here. Equal entries are not always repeated.

How the values were obtained:
[1] = system: A431 human epidermoid carcinoma xenografts; test: Fluorescence microscopy of Cy5-CTX distribution in A431 xenografts after PTX or vehicle (Example 5); format: in vivo, NCR athymic nude mice
Description: Cy5-CTX: The fluorescently labeled monoclonal Antibody (mAb) was prepared in house, by conjugating the monoclonal antibody (3.51 mg/mL in citrate-TEA buffer, obtained by buffer exchange from the commercial glycine solution of the mAb) with the commercially available fluorescent cyanine Cy5-NHS ester by using typical and well experienced procedures known in the art. Molar ratio dye/mAb in the conjugated product=2. Albumin-Fluoresceinisothiocyanate: (Albumin-FITC, by Sigma-Aldrich, 10 mg/mL solution). Optical Imaging Protocol […]
Forty-five histological images were acquired, corresponding to approximately 3 sections per tumor. Each image consisted in a stack of two channels corresponding to the fluorescence signal obtained from the dye Cyanine 5 (Cy5) and Fluorescein isothiocyanate (FITC).
The spatial distribution of the Cy5-CTX staining was analyzed calculating for each pixel its distance from the nearest vessel wall using FITC-Alb images (Distance Map FIG. 9 panel c). In the corresponding Cy5-CTX image, the Cy5-CTX signal was then expressed as a function of the pixel distance from the vessel wall (CTX decay curve). […]
Fluorescent CTX decay curves were measured for each tumor section acquired by fluorescence microscopy over distances ranging from 0 to about 700 μm from the nearest vessel wall. […]

[2] = system: PC-3 human prostate adenocarcinoma tumor; test: DCE-MRI of contrast agent kinetics in PC-3 tumors of Axitinib- or vehicle-treated mice (Example 3); format: in vivo, NCR athymic nude mice; conditions: contrast agent 100 μmol/kg i.v., one value per animal, trisodium salt
Text: The comparative test has been performed using NCR athymic nude mice implanted with PC-3 cells (a human prostate cancer line) and treated with Axitinib®, a VEGFRs inhibitor, (to modulate the tumor vascular permeability) by a protocol which timing is for instance schematized in FIG. 1. Scope of the test was to compare the image-based analysis of the albumin distribution in a human tumor model as extracted from the analysis of a time-serie of MRI images (with spatial resolution of around 110 μm) acquired with the method of the invention after injection of B22956/1 as contrast agent, and the distribution of FITC-BSA (Fluorescent isothiocyanate Bovine Serum Albumin) albumin inside and outside vessels histologically determined from fluorescent microscopy images on a scale of microns.
In particular, the trans-endothelial permeability (K^Trans) and the fractional plasma volume (fPV) were calculated from dynamic MR data by application of a bi-compartmental pharmacokinetic model, while the Initial Area Under the Curve (IAUCT) was calculated in several time windows, typically comprised between the contrast agent administration and the end of the MRI acquisition. The macromolecular penetration in tumors was, then, probed by fluorescently labelled Bovine Serum Albumin administered via tail vein after the last MRI session. Microscopic images were used to quantify the percentage of area stained by fluorescent albumin in the tumor, as a measure of the blood vessel density, using an automatic thresholding method. The albumin extravasation in the tumor extravascular space was assessed based on the fluorescence found out of the blood vessels from histological samples taken from both of tumor rim and core, for instance as schematized in FIG. 2. In particular, the albumin florescence was averaged over all pixels at a given distance from the nearest vessel and stored as a function of distance from the vessels walls, by use of an optimized procedure, for instance schematized in FIG. 3, providing both a quantification of the availability of the albumin in the extravascular space of the concerned tumor, namely the amount of the extravasated FITC-Albumin, and the decay of its concentration over the distance x from a nearest vessel, or, in other words, its actual distribution and dilution within the extracellular spaces (for instance as schematized in FIG. 4).
Human prostate adenocarcinoma cells (PC-3) were supplied by ATCC (American Type Culture Collection) and grown in Hams F-12 medium supplemented with 10% foetal bovine serum, 2 mM glutamine, 100 IU/mL penicillin and 100 μg/mL streptomycin (all from Lonza, Verviers, Belgium). […] Tumour development was followed by palpation and measured by calliper every 2-3 days until the end of the experiment. […]

Human Serum Albumin = Human Serum Albumin (Homo sapiens, UniProt P02768); conditions: literature; cited from earlier work
Human Serum Albumin, sequence (P02768 25-609): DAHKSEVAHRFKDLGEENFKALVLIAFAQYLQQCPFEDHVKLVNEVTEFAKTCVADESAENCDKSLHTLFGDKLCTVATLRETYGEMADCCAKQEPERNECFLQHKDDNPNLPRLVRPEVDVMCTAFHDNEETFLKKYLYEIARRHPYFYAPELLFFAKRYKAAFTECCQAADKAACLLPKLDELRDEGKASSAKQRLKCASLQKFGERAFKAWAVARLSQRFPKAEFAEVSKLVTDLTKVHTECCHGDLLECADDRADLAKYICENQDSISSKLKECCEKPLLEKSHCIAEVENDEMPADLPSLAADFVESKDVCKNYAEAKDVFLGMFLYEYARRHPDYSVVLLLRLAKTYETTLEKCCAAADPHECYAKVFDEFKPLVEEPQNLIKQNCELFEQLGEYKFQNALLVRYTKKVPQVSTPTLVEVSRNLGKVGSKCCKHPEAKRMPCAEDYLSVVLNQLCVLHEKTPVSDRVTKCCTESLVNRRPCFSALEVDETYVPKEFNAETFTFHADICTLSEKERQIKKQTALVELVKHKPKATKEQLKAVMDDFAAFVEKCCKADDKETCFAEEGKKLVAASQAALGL

Row | SMILES | Cy5-CTX fluorescence (fAUC), treated versus untreated tumors ([1]; between 400 and about 700 μm from the nearest vessel wall) | Cy5-CTX fAUC, treated versus untreated tumors ([1]; whole tested range from 0 to 700 μm) | kTrans (Transfer Constant) ([2]; tumor core) | kTrans (Transfer Constant) ([2]; tumor rim) | non-covalent binding with Human Serum Albumin (Human Serum Albumin)
1 | CC(=O)O[C@H]1C(=O)[C@@]2(C)[C@H]([C@H](OC(=O)c3ccccc3)[C@]3(O)C[C@H](OC(=O)[C@H](O)[C@@H](NC(=O)c4ccccc4)c4ccccc4)C(C)=C1C3(C)C)[C@]1(OC(C)=O)CO[C@@H]1C[C@@H]2O [PTX, Paclitaxel] | higher fluorescence | No differences |  |  | 
2 | C[C@H](CCC(=O)[O-])[C@H]1CC[C@H]2[C@@H]3CC[C@@H]4C[C@@H](NC(=O)CC[C@@H](C(=O)[O-])N(CCN(CC(=O)[O-])CC(=O)[O-])CCN(CC(=O)[O-])CC(=O)[O-])CC[C@]4(C)[C@H]3C[C@H](O)[C@]12C.[Gd+3].[Na+].[Na+].[Na+] [B22956/1, Gadocoletic acid trisodium salt] |  |  | 1.09 mL\(min × g) × 100 and 0.98 mL\(min × g) × 100 (2×) and 0.40 mL\(min × g) × 100 (2×) and 1.81 mL\(min × g) × 100 and 0.31 mL\(min × g) × 100 and 0.95 mL\(min × g) × 100 and 0.44 mL\(min × g) × 100 and 1.77 mL\(min × g) × 100 and 1.82 mL\(min × g) × 100 and 1.57 mL\(min × g) × 100 and 1.29 mL\(min × g) × 100 and 1.85 mL\(min × g) × 100 and 1.20 mL\(min × g) × 100 | 2.45 mL\(min × g) × 100 and 1.91 mL\(min × g) × 100 (2×) and 0.83 mL\(min × g) × 100 and 2.30 mL\(min × g) × 100 and 1.06 mL\(min × g) × 100 and 1.76 mL\(min × g) × 100 and 1.33 mL\(min × g) × 100 and 3.00 mL\(min × g) × 100 and 1.68 mL\(min × g) × 100 and 2.77 mL\(min × g) × 100 and 2.15 mL\(min × g) × 100 and 2.37 mL\(min × g) × 100 and 1.17 mL\(min × g) × 100 and 3.22 mL\(min × g) × 100 and 2.24 mL\(min × g) × 100 | about 95%
